In the NIST ThermoML archive (doi:10.1016/j.fluid.2006.12.016):

Conditions: 101.33 kPa, Liquid

CCCCn1cc[n+](C)c1.F[B-](F)(F)F [1-butyl-3-methylimidazolium tetrafluoroborate]
Conditions | mass density [kg/m3] | viscosity [mPa·s]
293.15 K | 1205.89 | 136.3
294.15 K | 1205.17 | –
295.15 K | 1204.46 | –
296.15 K | 1203.73 | –
297.15 K | 1203 | –
298.15 K | 1202.3 | 103.8
299.15 K | 1201.57 | –
300.15 K | 1200.85 | –
301.15 K | 1200.13 | –
302.15 K | 1199.43 | –
303.15 K | 1198.71 | 80.6
304.15 K | 1198 | –
305.15 K | 1197.28 | –
306.15 K | 1196.58 | –
307.15 K | 1195.85 | –
308.15 K | 1195.16 | 64
309.15 K | 1194.44 | –
310.15 K | 1193.73 | –
311.15 K | 1193.02 | –
312.15 K | 1192.32 | –
313.15 K | 1191.63 | 51.5
314.15 K | 1190.9 | –
315.15 K | 1190.2 | –
316.15 K | 1189.49 | –
317.15 K | 1188.78 | –
318.15 K | 1188.08 | 42.1
319.15 K | 1187.36 | –
320.15 K | 1186.66 | –
321.15 K | 1185.96 | –
322.15 K | 1185.27 | –
323.15 K | 1184.55 | 34.9

CCCCCCn1cc[n+](C)c1.F[B-](F)(F)F [1-hexyl-3-methylimidazolium tetrafluoroborate]
Conditions | mass density [kg/m3] | viscosity [mPa·s]
288.15 K | 1151.49 | 315.7
289.15 K | 1150.78 | –
290.15 K | 1150.08 | –
291.15 K | 1149.37 | –
292.15 K | 1148.66 | –
293.15 K | 1147.96 | 232.8
294.15 K | 1147.25 | –
295.15 K | 1146.56 | –
296.15 K | 1145.85 | –
297.15 K | 1145.15 | –
298.15 K | 1144.45 | 174.1
299.15 K | 1143.75 | –
300.15 K | 1143.04 | –
301.15 K | 1142.34 | –
302.15 K | 1141.65 | –
303.15 K | 1140.96 | 132.1
304.15 K | 1140.25 | –
305.15 K | 1139.56 | –
306.15 K | 1138.87 | –
307.15 K | 1138.16 | –
308.15 K | 1137.48 | 103
309.15 K | 1136.77 | –
310.15 K | 1136.08 | –
311.15 K | 1135.39 | –
312.15 K | 1134.7 | –
313.15 K | 1134.03 | 81.7
314.15 K | 1133.33 | –
315.15 K | 1132.64 | –
316.15 K | 1131.95 | –
317.15 K | 1131.28 | –
318.15 K | 1130.59 | 65.9
319.15 K | 1129.9 | –
320.15 K | 1129.22 | –
321.15 K | 1128.53 | –
322.15 K | 1127.87 | –
323.15 K | 1127.17 | 53.9

CCCCCCCC[n+]1ccn(C)c1.F[B-](F)(F)F [1-methyl-3-octylimidazolium tetrafluoroborate]
Conditions | mass density [kg/m3] | viscosity [mPa·s]
288.15 K | 1110.37 | 412.3
289.15 K | 1109.66 | –
290.15 K | 1108.98 | –
291.15 K | 1108.29 | –
292.15 K | 1107.6 | –
293.15 K | 1106.92 | 300.9
294.15 K | 1106.24 | –
295.15 K | 1105.55 | –
296.15 K | 1104.87 | –
297.15 K | 1104.18 | –
298.15 K | 1103.51 | 222.8
299.15 K | 1102.82 | –
300.15 K | 1102.13 | –
301.15 K | 1101.45 | –
302.15 K | 1100.77 | –
303.15 K | 1100.09 | 168.9
304.15 K | 1099.41 | –
305.15 K | 1098.73 | –
306.15 K | 1098.05 | –
307.15 K | 1097.35 | –
308.15 K | 1096.69 | 131.2
309.15 K | 1096 | –
310.15 K | 1095.32 | –
311.15 K | 1094.64 | –
312.15 K | 1093.96 | –
313.15 K | 1093.29 | 102.9
314.15 K | 1092.6 | –
315.15 K | 1091.92 | –
316.15 K | 1091.25 | –
317.15 K | 1090.57 | –
318.15 K | 1089.89 | 81.8
319.15 K | 1089.23 | –
320.15 K | 1088.54 | –
321.15 K | 1087.88 | –
322.15 K | 1087.21 | –
323.15 K | 1086.51 | 66.7
